Patent US8637310B2, “Use of a rock inhibitor to sustain primary human keratinocytes in a proliferative state” (The United States of America, as represented by the …, priority 2008, dated 2014)

How the values were obtained:
[1] = test system: HPV18; test: HPV DNA replication assay (Southern blot) in transfected primary keratinocytes, HPV18; format: cell-based, human papillomavirus
Procedure: (§1) Cloned viral genomes were cleaved with restriction enzymes to separate viral and vector sequences. The genomes were religated at a concentration of 5 μg/ml to favor intramolecular circularization. Prior to electroporation, J2 feeder cells were removed from the keratinocytes by versene treatment and the HFKs were collected by trypsinization. HFKs (1×10^6) were electroporated with 2 μg of re-circularized viral genomic DNA using the Amaxa Nucleofector II electroporator and the Human Keratinocyte Nucleofector Kit. The Amaxa program optimized for cell survival was used according to the manufacturer's specifications. Cells were removed from the cuvettes immediately following electroporation, and seeded onto 10 cm plates containing irradiated feeder cells and F-medium, in the presence or absence of 10 μM Y-27632, as indicated. At various times post-transfection, low molecular weight DNA was isolated by a modified Hirt extraction procedure (Ustav et al., EMBO J. 10:449-457, 1991). For Southern blot analysis, the isolated DNA was linearized with EcoRI or BamHI, depending on cloning site for each viral genome, and DpnI, to digest any unreplicated input DNA. DNA fragments were separated by agarose gel electrophoresis followed by Southern blot hybridization. A ^32P-labeled probe was synthesized from the isolated viral genomic DNA (purified from the vector sequence) by the random prime method and used in Southern hybridizations.

[2] = test system: HPV16; test: HPV16 genome copy number in W12 cells; format: cell-based, human papillomavirus; conditions: 10 μM Y-27632, FIG. 8
Procedure: The 9E and W12 (20863 clone) cell lines were cultured in F-media on irradiated J2 feeder cells. For the Y-27632 experiments they were cultured in F-medium with or without 10 μM Y-27632 and continually passed for the times indicated.
as §1, with “DNA fragments were separated by agarose gel electrophoresis followed by Southern blot hybridization. A ^32P-labeled probe was synthesized from the isolated viral genomic DNA (purified from the vector sequence) by the random prime method and used in Southern hybridizations.” left out

[3] = test system: CIN612 9E cells; test: Growth of CIN1-derived cell line CIN612 9E; format: cell-based, human; conditions: 10 μM Y-27632; 44 days; FIG. 7
Procedure: The 9E and […] (20863 clone) cell lines were cultured in F-media on irradiated J2 feeder cells. For the Y-27632 experiments they were cultured in F-medium with or without 10 μM Y-27632 and continually passed for the times indicated.

[4] = test system: human foreskin keratinocytes (HFK); test: Long-term culture / immortalization of primary human foreskin keratinocytes on irradiated J2 feeder cells; format: cell-based
Procedure: Primary human foreskin keratinocytes (HFKs) were isolated and pooled from neonatal human foreskins from seven donors and grown in F medium (3: 1(v/v) F-12 Nutrient Mixture: DMEM, 5% FBS, 0.4 μg/ml hydrocortisone, 5 μg/ml insulin, 8.4 ng/ml cholera toxin, 10 ng/ml EGF, and 24 μg/ml adenine) (Jeon et al., Proc. Natl. Acad. Sci. USA 92:1654-1658, 1995) in the presence of irradiated J2 feeder cells. HFKs were divided into 10 cm plates, containing F-media with or without the addition of 10 μM Y-27632 (Alexis Biochemicals, San Diego, Calif.).
Human foreskin keratinocytes (HFKs) were isolated from pools of at least seven neonatal foreskins and grown in 154 medium supplemented with Human
Keratinocyte Growth Supplement and Gentamicin/Amphotericin (Invitrogen, Carlsbad, Calif.) or in F medium [3:1 (v/v) F-12 (Ham)-DMEM, 5% FBS, 0.4 μg/ml hydrocortisone, 5 μg/ml insulin, 8.4 ng/ml cholera toxin, 10 ng/ml EGF, 24 μg/ml adenine, 100 U penicillin, 100 μg/ml streptomycin (Invitrogen, cat no. 15140-148)] in the presence of irradiated 3T3 J2 feeder cells (Jeon et al., J. Virol. 69: 2989-2997, 1995).
(§2) The HPV18 cell line was established by introducing the HPV18 genome into primary HFKs using the Amaxa human keratinocyte nucleofection system. Primary human cervical keratinocytes (HCKs), human vaginal keratinocytes (HVKs), the HPV18 cell lines and the HPV31 positive cell line (CIN-612 9E) were grown in the presence or absence of 10 μM Y-27632 (Alexis Biochemicals), as indicated. Cells were subcultured by removing the fibroblast feeder cells with versene and keratinocytes were collected by trypsinization. At each pass, 2×10^5 cells were plated on a 10 cm plate of J2 feeder cells. Population doubling was calculated as: PD=3.32(log(# cells harvested/# cells seeded)). Immunodetection

[5] = test system: human embryonic stem cells; conditions: cited from earlier work
[6] = test system: airway epithelial cells; conditions: Moore et al. 2004; cited from earlier work
[7] = test system: keratinocytes; test: Organotypic raft culture (differentiation, stratification); format: cell-based, human
Procedure: Organotypic cultures were generated as described previously with modifications. (Banerjee et al., Methods Mol. Med. 119: 187-202, 2005). Briefly, 1×10^5 keratinocytes were seeded onto a rat tail type 1 collagen dermal equivalent containing 1−2×10^6 J2 3T3 feeder cells. The rafts were lifted onto stainless steel grids and were fed by diffusion from below with raft medium [3:1 (v/v) DMEM-F-12 (Ham), 10% FBS, 0.4 μg/ml hydrocortisone, 0.1 nM cholera toxin, and 5 μg/ml transferring]. Raft cultures were allowed to stratify and differentiate for 11-17 days. The collagen-epithelial rafts were fixed in formalin for 4 hours, paraffin embedded, sectioned and stained with hematoxylin and eosin (H&E) or by immunofluorescence as described in Pei et al. (Methods Mol. Med. 119: 49-59, 2005). Monoclonal antibody against anti-keratin 14 (K14) (Ab-1) was from Thermo Fisher Scientific, Fremont, Calif. Goat polyclonal antiserum against Filaggrin (N-20) and rabbit polyclonal antiserum against involucrin (H-120) were from Santa Cruz Biotechnology.

[8] = test system: human cervical keratinocytes (HCK); test: Long-term culture / immortalization of primary human cervical keratinocytes on feeder cells; format: cell-based; conditions: 10 μM Y-27632; FIG. 9
Procedure: as §2

[9] = test system: p53 pathway; test: Growth arrest assay (DNA damage response to 0.5 nM actinomycin D); format: cell-based, human; conditions: 0.5 nM actinomycin D 24 hours; Y-27632-treated HFKs at P122; FIG. 12B
Procedure: Keratinocytes (1-2×10^6) were seeded on a 10 cm plate. Forty-eight hours later they were treated with 0.5 nM actinomycin D for 24 hours. Protein extracts were prepared, as described above, and analyzed for p53 and p21 protein levels.

[10] = 10 μM Y-27632, Example 2, FIG. 14

In the case of `CC(N)[C@H]1CC[C@H](C(=O)Nc2ccncc2)CC1` (single isomer, unassigned; (+)) [Y-27632, (+)-trans-N-(4-Pyridyl)-4-(1-aminoethyl)-cyclohexanecarboxamide], the “efficiency of HPV replication” value ([1]; 10 μM Y-27632, two and five days post-electroporation, FIG. 5) is reported as “greatly increased the efficiency of HPV replication up to five days”, the “HPV18 replication, long-term assay” value ([1]; after day 10, FIG. 6) is reported as “greater levels of replication in the absence of Y-27632” and the “HPV18 replication, long-term assay” value ([1]; at early times, FIGS. 5 and 6) is reported as “greater in the presence of Y-27632”. The HPV16 copy number [2] was “partially rescued the decline in copy number”, the growth rate [3] was “no differences in growth rate were observed” and the “continued division / growth rate beyond senescence of untreated cells (about 15 passages)” value ([4]; 10 μM Y-27632, Example 1) was “continued to divide without any decrease in growth rate”. For the same compound, the “number of times treated cells were passed” value ([4]; 10 μM Y-27632, Example 1) was “at least 82 times”, the “proliferation rate versus untreated cells” value ([4]; 10 μM Y-27632, Example 1) was “proliferated at a rate that exceeded the untreated cells almost immediately” and the “time in continuous culture” value ([4]; 10 μM Y-27632, Example 1) was “over 10 months”. The passages in culture [4, 10] was “up to 150 passages”, the period of culture [4, 10] was 500 days and the bypass of senescence ([4]; 10 μM Y-27632, FIG. 9) was “efficiently bypassed senescence with no observed decline in growth rate”. For the same compound, the cellular proliferation ([4]; 10 μM Y-27632, FIG. 9) was “dramatic increase in cellular proliferation”, the “population doubling (PD) to which cells were cultured, considered to be immortal” value ([4]; +Y-27632 (10 μM), HFK strain b) was “PD199” and the “growth after withdrawal of Y-27632” value ([4]; withdrawn at passage 48, after 196 days in culture) was “continued to grow unchecked with only a gradual slowing in the rate of population doubling”. For the same compound, the “survival rate of human embryonic stem cells following cryopreservation” value ([5]; Li et al. 2008) was “enhances the survival rate”, the “survival of embryonic stem cells” value ([5]; Watanabe et al. 2007) was “greatly increase the survival of embryonic stem cells” and the “effect on airway epithelial cells” value [6] was “induces membrane ruffling, loss of actin stress fibers and apoptosis”. For the same compound, the differentiation and stratification ([7]; 10 μM Y-27632 added to the organotypic raft culture medium) was “no differentiation or stratification were observed”, the “formation of stratified epithelium” value ([7]; cells cultured in Y-27632 for 18 passages and late pass, raft media without Y-27632) was “could also produce a stratified epithelium in organotypic culture” and the “expression of keratin 14, involucrin and filaggrin” value ([7]; raft tissue from Y-27632-treated cells, immunofluorescence) was “expressed these differentiation markers in the appropriate layer”. The bypass of senescence [8] was “efficiently bypassed senescence with no observed decline in growth rate”, the cellular proliferation [8] was “dramatic increase in cellular proliferation” and the “DNA damage response (p53 and p21 upregulation)” value [9] was “normal DNA damage response”.
